Patent US20250090541A1, “Methods for Treating Neurodegenerative Disorders” (Praetego Inc, priority 2022, published 2025)

Key:
Format in all cases: in vivo
[1] = Mortality and apparent toxicity, 20 weeks in 3×Tg mice; details: 1 and 5 mg/kg in drinking water
Protocol: (§1) Female and male 3×Tg mice (MMRRC #034830) were treated daily for 20 weeks with PTG-670 trihydrochloride at 1 and 5 mg/kg in drinking water starting at 19 weeks of age (˜5 months old) (just before cognitive deficits onset).
• 1—Control (B6129SF2/J Jax 101045)), N=7 male, N=7 female, • 2—3×Tg, N=7 male, N=7 female, • 3—3×Tg+PTG-670 1 mg/kg drinking water, N=7 male, N=7 female, • 4—3×Tg+PTG-670 5 mg/kg drinking water, N=7 male, N=7 female.
No mice died during the course of the study.

3×Tg mice [2] = test: Tactile response (manual von Frey filaments), 3×Tg mice; details: 3×Tg mice did not develop tactile allodynia
Protocol: as §1
(§2) Tactile and thermal responses were assessed at 5 and 11 weeks. Motor nerve conduction velocity (NCV) was measured at 8, 12 and 20 weeks after treatment. Learning and memory were assessed using the Barnes maze test and the object recognition test at 6, 12, and 18 weeks of treatment. Corneal nerves were imaged by corneal confocal microscopy (CCM) at week 5, 11 and 17. Data represent male and female results combined, unless specified, mean±sem.

3×Tg mice [3] = test: Thermal response to heat stimuli, 3×Tg mice; details: 3×Tg mice did not develop significant hypoalgesia
Protocol: as §1, §2

3×Tg mice [4] = test: Motor nerve conduction velocity (NCV), 3×Tg mice; details: male 3×Tg mice, 20 weeks time point
Protocol: as §1, §2
Male 3×Tg mice develop significant (p<0.05) nerve conduction velocity slowing by 9 months of age (20 weeks time point) (data not shown). The slowing of NCV was prevented by treatment with PTG-670 at both 1 and 5 mg/kg in drinking water.

3×Tg mice [5] = test: Barnes maze learning abilities, 3×Tg mice
Protocol: as §1, §2
Learning abilities assessed using the Barnes maze were impaired in 3×Tg mice in both male and female around 6-7 months, conform with the literature (Stover et al., 2015).

3×Tg mice [6] = test: Barnes maze long-term memory, 3×Tg mice
Protocol: as §1, §2
Using the Barnes maze test, long-term memory was assessed between week 12 and 18 of treatment.

3×Tg mice [7] = test: Object Recognition test, 3×Tg mice; details: for short term episodic memory deficits in Object recognition test: 5 mg/kg
Protocol: as §1, §2

4-hydroxynonal (4-HNE) = test: Lipid peroxidation, 4-HNE Oxiselect Elisa in hippocampus homogenates, 3×Tg mice; details: 5 mg/kg
Protocol: as §1
Lipid peroxidation was assessed using the 4-Hydroxynonal (4-HNE) Oxiselect Elisa in hippocampus homogenates.

Drebrin = test: Western blot of hippocampus, 3×Tg mice: Drebrin
Protocol: as §1
(§3) Mouse Hippocampus were processed for Western blotting analysis of Drebrin (actin binding protein in dendritic spines, role in neuronal growth, a decrease is a contributing factor in the pathogenesis of memory disturbance), PSD95 (a post-synaptic protein, role in the regulation of excitatory synapse maturity), and NeuN (neuronal nuclear antigen, biomarker for neurons, decrease=neuronal loss) (FIG. 12). The reduced drebrin levels in the hippocampus of 3×Tg mice was ameliorated by 20 weeks of treatment with PTG-670 at 5 mg/kg in drinking water only for female mice. Similarly, levels of PSD95 protein tend to decrease in 3×Tg mice and to be ameliorated by 5 mg/kg PTG670.

PSD95 = test: Western blot of hippocampus, 3×Tg mice: PSD95
Protocol: as §1, §3

NeuN = test: Western blot of hippocampus, 3×Tg mice: NeuN
Protocol: as §1, §3

## Cc1ncc(CN2CCCCCC2)c(-c2ncc[nH]2)c1O [PTG-670, 5-(azepan-1-ylmethyl)-4-(1H-imidazol-2-yl)-2-methylpyridin-3-ol]
[1]
  apparent toxicity: No apparent toxicity was observed
3×Tg mice [2]
  responses to von Frey filaments: did not affect mice responses to von Frey filaments
3×Tg mice [3]
  responses to heat stimuli: did not affect the 3×Tg mice responses to heat stimuli
3×Tg mice [4]; 1 mg/kg in drinking water
  slowing of NCV: prevented
3×Tg mice [4]; 5 mg/kg in drinking water
  slowing of NCV: prevented
3×Tg mice [5]; female 3×Tg mice, 1 mg/kg for 18 weeks
  learning abilities in Barnes maze: significantly improved learning abilities to level similar to control
3×Tg mice [5]; male 3×Tg mice
  learning deficits in Barnes maze: did not improve learning deficits
3×Tg mice [6]; female 3×Tg mice, 1 mg/kg, by week 18 of treatment
  long-term memory impairment in Barnes maze: significantly (p<0.05) prevented
3×Tg mice [6]; male 3×TG mice
  memory abilities in Barnes maze: No difference in memory abilities or effect
3×Tg mice [7]; after 6 weeks of treatment
  short term episodic memory deficits in Object recognition test: significantly (p<0.05) ameliorated
3×Tg mice [7]; after 18 weeks of treatment
  short term episodic memory deficits in Object recognition test: significantly (p<0.05) ameliorated
3×Tg mice [7]; FIG. 10 legend, 6 to 18 weeks of treatment
  short-term episodic memory (recognition index): alleviated
4-hydroxynonal (4-HNE)
  4-HNE levels in hippocampus: tend to reduce HNE levels
Drebrin; female mice only, 5 mg/kg in drinking water, 20 weeks
  reduced drebrin levels in hippocampus: ameliorated
Drebrin; male 3×Tg mice
  Drebrin in hippocampus: No differences were observed
PSD95; 5 mg/kg, tendency
  levels of PSD95 protein in hippocampus: ameliorated
PSD95; male 3×Tg mice
  PSD95 in hippocampus: No differences were observed
NeuN; female mice only, 5 mg/kg
  neuronal loss (NeuN) in hippocampus: significantly (p<0.05) elevated
NeuN; male 3×Tg mice
  NeuN in hippocampus: No differences were observed
